Results: US20180243298A1, “TRPV3 MODULATORS” (AbbVie Inc., priority 2015, published 2018)

Target: T1, human TRPV3 (Homo sapiens, UniProt Q8NET8)
T1 construct: expressed in transfected cells; host or cells: HEK293
T1 sequence (Q8NET8 1-790): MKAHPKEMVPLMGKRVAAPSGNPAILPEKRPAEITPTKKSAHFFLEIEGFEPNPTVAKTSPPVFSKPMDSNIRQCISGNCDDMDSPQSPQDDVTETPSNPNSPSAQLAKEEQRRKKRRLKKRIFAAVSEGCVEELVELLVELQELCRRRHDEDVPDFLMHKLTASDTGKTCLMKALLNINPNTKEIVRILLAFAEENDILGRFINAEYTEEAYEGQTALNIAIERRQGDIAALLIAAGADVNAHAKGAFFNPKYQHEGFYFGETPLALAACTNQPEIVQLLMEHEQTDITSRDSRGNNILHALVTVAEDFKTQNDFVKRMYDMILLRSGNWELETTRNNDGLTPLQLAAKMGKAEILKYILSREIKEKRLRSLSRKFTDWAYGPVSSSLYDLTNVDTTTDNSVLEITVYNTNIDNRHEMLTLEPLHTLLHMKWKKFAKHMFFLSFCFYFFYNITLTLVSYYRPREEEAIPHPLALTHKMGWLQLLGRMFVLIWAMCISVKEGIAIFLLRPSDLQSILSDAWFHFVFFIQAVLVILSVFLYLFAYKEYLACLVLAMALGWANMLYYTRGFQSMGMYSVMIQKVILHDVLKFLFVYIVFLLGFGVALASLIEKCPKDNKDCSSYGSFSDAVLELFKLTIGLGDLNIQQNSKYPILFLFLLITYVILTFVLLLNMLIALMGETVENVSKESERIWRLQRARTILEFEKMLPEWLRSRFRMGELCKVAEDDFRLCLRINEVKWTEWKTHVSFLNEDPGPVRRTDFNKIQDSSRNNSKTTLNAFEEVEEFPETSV
Experiment: Calcium flux assay (FLIPR TETRA), recombinant HEK293 cells expressing TRPV3, 2-APB response
Assay type: cell-based
Details: 2-APB at its EC80
Protocol: (i) In Vitro Methods-Calcium Flux Assays:
Experiments were conducted using the FLIPR TETRA®. On the day prior to the experiment, recombinant HEK293 cells that stably express human and mouse TRPV3 were removed from tissue culture flasks and plated in growth medium at 20,000 cells/well into black-walled clear-bottom 384-well BIOCOAT™ poly-D-lysine assay plates (BD Biosciences, Bedford, Mass.) using a MULTIDROP® dispenser (ThermoScientific, Waltham, Mass.). On the day of the experiment, growth medium was removed, and the no-wash FLIPR® Calcium-4 dye (λEX=470-495 nm, λEM=515-575 nm; Molecular Devices, Sunnyvale, Calif.) was added to each well using the MULTIDROP® dispenser. Cells were incubated for 90-120 minutes in the dark. The compounds were dissolved in DMSO to prepare a 10 mM stock solution. The intensity of the fluorescence was captured and digitally transferred to an interfaced PC. The peak increase in fluorescence over baseline, measured in relative fluorescence units, was calculated and expressed as the percentage of the maximal 2-APB (2-aminoethoxyldiphenyl borate) response (in the absence of compound). The concentration of 2-APB corresponds to its EC80.

IC50 [nM]	SMILES
100 to 500	COc1ncnc(OC)c1C(=O)Nc1nc(C(F)(F)F)c(-c2cnc(C#N)nc2)s1 [Example 162, N-[5-(2-cyanopyrimidin-5-yl)-4-(trifluoromethyl)-1,3-thiazol-2-yl]-4,6-dimethoxypyrimidine-5-carboxamide]
50 to 100	COc1ncnc(OC)c1C(=O)Nc1nc(C(F)(F)F)c(-c2cccc(NS(=O)(=O)N(C)C)c2)s1 [Example 201, N-[5-{3-[(dimethylsulfamoyl)amino]phenyl}-4-(trifluoromethyl)-1,3-thiazol-2-yl]-4,6-dimethoxypyrimidine-5-carboxamide]
500 to 1000	COc1ncnc(OC)c1C(=O)Nc1nc(-c2ccc(C(F)(F)F)cn2)c([S+](C)[O-])s1 (centres unmarked) [Example 113, 4,6-dimethoxy-N-[5-methylsulfinyl-4-[5-(trifluoromethyl)-2-pyridyl]-1,3-thiazol-2-yl]pyrimidine-5-carboxamide]
50 to 100	COc1ncnc(OC)c1C(=O)Nc1nc(C(F)(F)F)c(C(=O)c2ccccc2)s1 [Example 121, N-[5-benzoyl-4-(trifluoromethyl)-1,3-thiazol-2-yl]-4,6-dimethoxypyrimidine-5-carboxamide]
100 to 500	COc1ncnc(OC)c1C(=O)Nc1nc(C(F)(F)F)c(-c2ccc(C(C)(C)C#N)cc2)s1 [Example 173, N-{5-[4-(2-cyanopropan-2-yl)phenyl]-4-(trifluoromethyl)-1,3-thiazol-2-yl}-4,6-dimethoxypyrimidine-5-carboxamide]
< 50	COc1ncnc(SC)c1C(=O)Nc1nc(C(F)(F)F)c(-c2ccccc2C#N)s1 [Example 159, N-[5-(2-cyanophenyl)-4-(trifluoromethyl)-1,3-thiazol-2-yl]-4-methoxy-6-(methylsulfanyl)pyrimidine-5-carboxamide]
100 to 500	COc1nc(C#N)nc(C(F)(F)F)c1C(=O)Nc1nc(C(F)(F)F)c(I)s1 [Example 161, 2-cyano-N-[5-iodo-4-(trifluoromethyl)-1,3-thiazol-2-yl]-4-methoxy-6-(trifluoromethyl)pyrimidine-5-carboxamide]
500 to 1000	COc1ncnc(OC)c1C(=O)Nc1nc(C(F)(F)F)c(C2(F)CCOCC2)s1 [Example 118, N-[5-(4-fluorotetrahydro-2H-pyran-4-yl)-4-(trifluoromethyl)-1,3-thiazol-2-yl]-4,6-dimethoxypyrimidine-5-carboxamide]

Second part, the molecule before the results:

SMILES	IC50 [nM]
COc1ncnc(OC)c1C(=O)Nc1nc(C(F)(F)F)c(CN2CCCC3(COC3)C2)s1 [Example 62, 4,6-dimethoxy-N-[5-(2-oxa-6-azaspiro[3.5]non-6-ylmethyl)-4-(trifluoromethyl)-1,3-thiazol-2-yl]pyrimidine-5-carboxamide]	50 to 100
COc1ncnc(OC)c1C(=O)Nc1nc(C(F)(F)F)c(CN(C)CC(C)C)s1 [Example 54, 4,6-dimethoxy-N-[5-{[methyl(2-methylpropyl)amino]methyl}-4-(trifluoromethyl)-1,3-thiazol-2-yl]pyrimidine-5-carboxamide]	< 50
COc1ncnc(OC)c1C(=O)Nc1nc(CCC2CC2)cs1 [Example 105, N-[4-(2-cyclopropylethyl)-1,3-thiazol-2-yl]-4,6-dimethoxypyrimidine-5-carboxamide]	50 to 100
CCOc1ncnc(OCC)c1C(=O)Nc1nc(C(F)(F)F)c(-c2ccc(Cl)cc2)s1 [Example 5, N-[5-(4-chlorophenyl)-4-(trifluoromethyl)-1,3-thiazol-2-yl]-4,6-diethoxypyrimidine-5-carboxamide]	500 to 1000
COc1cc(C#N)ccc1-c1sc(NC(=O)c2c(OC)ncnc2OC)nc1C(F)(F)F [Example 43, N-[5-(4-cyano-2-methoxyphenyl)-4-(trifluoromethyl)-1,3-thiazol-2-yl]-4,6-dimethoxypyrimidine-5-carboxamide]	< 50
CCOc1ncnc(OCC)c1C(=O)Nc1nc(C(F)(F)F)c(C#N)s1 [Example 7, N-[5-cyano-4-(trifluoromethyl)-1,3-thiazol-2-yl]-4,6-diethoxypyrimidine-5-carboxamide]	500 to 1000
COc1ncnc(OC)c1C(=O)Nc1nc(C(F)(F)F)c([S+]([O-])Cc2ccccc2)s1 (centres unmarked) [Example 112, N-(5-(benzylsulfinyl)-4-(trifluoromethyl)thiazol-2-yl)-4,6-dimethoxypyrimidine-5-carboxamide]	> 1000
COc1ncnc(OC)c1C(=O)Nc1nc(C(F)(F)F)c(CN(C)C(C)(C)C)s1 [Example 55, N-[5-{[tert-butyl(methyl)amino]methyl}-4-(trifluoromethyl)-1,3-thiazol-2-yl]-4,6-dimethoxypyrimidine-5-carboxamide]	100 to 500
CCOC(=O)c1sc(NC(=O)c2c(OC)ncnc2OC)nc1-c1ccc(C(F)(F)F)cn1 [Example 75, ethyl 2-{[(4,6-dimethoxypyrimidin-5-yl)carbonyl]amino}-4-[5-(trifluoromethyl)pyridin-2-yl]-1,3-thiazole-5-carboxylate]	100 to 500
COc1ncnc(OC)c1C(=O)Nc1nc(C(F)(F)F)c(CCC(C)(C)O)s1 [Example 20, N-[5-(3-hydroxy-3-methylbutyl)-4-(trifluoromethyl)-1,3-thiazol-2-yl]-4,6-dimethoxypyrimidine-5-carboxamide]	500 to 1000
COc1cc(F)ccc1-c1csc(NC(=O)c2c(OC)ncnc2OC)n1 [Example 108, N-[4-(4-fluoro-2-methoxyphenyl)-1,3-thiazol-2-yl]-4,6-dimethoxypyrimidine-5-carboxamide]	100 to 500
COCc1sc(NC(=O)c2c(OC)ncnc2OC)nc1-c1ccc(C(F)(F)F)cn1 [Example 86, 4,6-dimethoxy-N-{5-(methoxymethyl)-4-[5-(trifluoromethyl)pyridin-2-yl]-1,3-thiazol-2-yl}pyrimidine-5-carboxamide]	< 50
COc1ncnc(OC)c1C(=O)Nc1nc(-c2ccc(C(F)(F)F)cn2)c(C(C)O)s1 (single isomer, unassigned) [Example 84, N-{5-[(1S*)-1-hydroxyethyl]-4-[5-(trifluoromethyl)pyridin-2-yl]-1,3-thiazol-2-yl}-4,6-dimethoxypyrimidine-5-carboxamide]	100 to 500
CCc1sc(NC(=O)c2c(OC)nc(C)nc2OC)nc1C(F)(F)F [Example 69, N-[5-ethyl-4-(trifluoromethyl)-1,3-thiazol-2-yl]-4,6-dimethoxy-2-methylpyrimidine-5-carboxamide]	50 to 100
COc1ncnc(OC)c1C(=O)Nc1nc(C(F)(F)F)c(CN2CCOCC2)s1 [Example 50, 4,6-dimethoxy-N-[5-(morpholin-4-ylmethyl)-4-(trifluoromethyl)-1,3-thiazol-2-yl]pyrimidine-5-carboxamide]	> 1000
COc1ncnc(OC)c1C(=O)Nc1nc(-c2ccc(C(F)(F)F)cn2)c(CO)s1 [Example 80, N-{5-(hydroxymethyl)-4-[5-(trifluoromethyl)pyridin-2-yl]-1,3-thiazol-2-yl}-4,6-dimethoxypyrimidine-5-carboxamide]	50 to 100
COc1ncnc(OC)c1C(=O)Nc1nc(C2CCC(F)(F)CC2)cs1 [Example 99, N-[4-(4,4-difluorocyclohexyl)-1,3-thiazol-2-yl]-4,6-dimethoxypyrimidine-5-carboxamide]	100 to 500
COc1ncnc(OC)c1C(=O)Nc1nc(-c2ccc(C(F)(F)F)cn2)c(CN2CCOCC2)s1 [Example 77, 4,6-dimethoxy-N-{5-(morpholin-4-ylmethyl)-4-[5-(trifluoromethyl)pyridin-2-yl]-1,3-thiazol-2-yl}pyrimidine-5-carboxamide]	< 50
